Data: the NIST ThermoML archive (doi:10.1016/j.jct.2012.11.004)
Numbers after ± are expanded uncertainties.

Assay: mn = molality of the nth substance listed, in mol/kg
Conditions: 101 kPa, Liquid; for mass density: Vibrating tube method; for speed of sound: Pulse-echo method

O=S(=O)([O-])C(F)(F)F.O=S(=O)([O-])C(F)(F)F.O=S(=O)([O-])C(F)(F)F.[Gd+3] [gadolinium (III) trifluoromethanesulfonate] + CC(=O)N(C)C
mass density (283.15 K, m1 = 0.02128): 959.25 ± 0.9 kg/m3
mass density (283.15 K, m1 = 0.02915): 962.65 ± 0.9 kg/m3
mass density (283.15 K, m1 = 0.03784): 966.42 ± 0.91 kg/m3
mass density (283.15 K, m1 = 0.04864): 971.16 ± 0.92 kg/m3
mass density (283.15 K, m1 = 0.05951): 975.96 ± 0.92 kg/m3
mass density (283.15 K, m1 = 0.07557): 983.07 ± 0.93 kg/m3
mass density (283.15 K, m1 = 0.0965): 992.52 ± 0.95 kg/m3
mass density (283.15 K, m1 = 0.1165): 1001.67 ± 0.97 kg/m3
mass density (283.15 K, m1 = 0.1341): 1009.86 ± 0.98 kg/m3
mass density (283.15 K, m1 = 0.1567): 1020.47 ± 1 kg/m3
mass density (283.15 K, m1 = 0.1757): 1029.6 ± 1 kg/m3
mass density (293.15 K, m1 = 0.02128): 950.04 ± 0.9 kg/m3
mass density (293.15 K, m1 = 0.02915): 953.45 ± 0.9 kg/m3
mass density (293.15 K, m1 = 0.03784): 957.21 ± 0.91 kg/m3
mass density (293.15 K, m1 = 0.04864): 961.95 ± 0.92 kg/m3
mass density (293.15 K, m1 = 0.05951): 966.76 ± 0.92 kg/m3
mass density (293.15 K, m1 = 0.07557): 973.86 ± 0.93 kg/m3
mass density (293.15 K, m1 = 0.0965): 983.33 ± 0.95 kg/m3
mass density (293.15 K, m1 = 0.1165): 992.48 ± 0.96 kg/m3
mass density (293.15 K, m1 = 0.1341): 1000.66 ± 0.98 kg/m3
mass density (293.15 K, m1 = 0.1567): 1011.27 ± 1 kg/m3
mass density (293.15 K, m1 = 0.1757): 1020.41 ± 1 kg/m3
speed of sound (298.15 K, m1 = 0.02128): 1456.1 ± 1.3 m/s
speed of sound (298.15 K, m1 = 0.02915): 1455.9 ± 1.3 m/s
speed of sound (298.15 K, m1 = 0.03784): 1455.7 ± 1.3 m/s
speed of sound (298.15 K, m1 = 0.04864): 1455.4 ± 1.3 m/s
speed of sound (298.15 K, m1 = 0.05951): 1455 ± 1.3 m/s
speed of sound (298.15 K, m1 = 0.07557): 1454.7 ± 1.3 m/s
speed of sound (298.15 K, m1 = 0.0965): 1454 ± 1.3 m/s
speed of sound (298.15 K, m1 = 0.1165): 1453.6 ± 1.3 m/s
speed of sound (298.15 K, m1 = 0.1341): 1452.9 ± 1.4 m/s
speed of sound (298.15 K, m1 = 0.1567): 1452.5 ± 1.4 m/s
speed of sound (298.15 K, m1 = 0.1757): 1451.8 ± 1.4 m/s
mass density (298.15 K, m1 = 0.02128): 945.43 ± 0.9 kg/m3
mass density (298.15 K, m1 = 0.02915): 948.84 ± 0.9 kg/m3
mass density (298.15 K, m1 = 0.03784): 952.61 ± 0.91 kg/m3
mass density (298.15 K, m1 = 0.04864): 957.35 ± 0.92 kg/m3
mass density (298.15 K, m1 = 0.05951): 962.16 ± 0.92 kg/m3
mass density (298.15 K, m1 = 0.07557): 969.27 ± 0.93 kg/m3
mass density (298.15 K, m1 = 0.0965): 978.73 ± 0.95 kg/m3
mass density (298.15 K, m1 = 0.1165): 987.87 ± 0.96 kg/m3
mass density (298.15 K, m1 = 0.1341): 996.06 ± 0.98 kg/m3
mass density (298.15 K, m1 = 0.1567): 1006.67 ± 1 kg/m3
mass density (298.15 K, m1 = 0.1757): 1015.81 ± 1 kg/m3
mass density (303.15 K, m1 = 0.02128): 940.82 ± 0.9 kg/m3
mass density (303.15 K, m1 = 0.02915): 944.24 ± 0.9 kg/m3
mass density (303.15 K, m1 = 0.03784): 948.01 ± 0.91 kg/m3
mass density (303.15 K, m1 = 0.04864): 952.76 ± 0.92 kg/m3
mass density (303.15 K, m1 = 0.05951): 957.57 ± 0.92 kg/m3
mass density (303.15 K, m1 = 0.07557): 964.67 ± 0.93 kg/m3
mass density (303.15 K, m1 = 0.0965): 974.12 ± 0.95 kg/m3
mass density (303.15 K, m1 = 0.1165): 983.27 ± 0.96 kg/m3
mass density (303.15 K, m1 = 0.1341): 991.46 ± 0.98 kg/m3
mass density (303.15 K, m1 = 0.1567): 1002.09 ± 1 kg/m3
mass density (303.15 K, m1 = 0.1757): 1011.21 ± 1 kg/m3
mass density (313.15 K, m1 = 0.02128): 931.58 ± 0.9 kg/m3
mass density (313.15 K, m1 = 0.02915): 935 ± 0.9 kg/m3
mass density (313.15 K, m1 = 0.03784): 938.78 ± 0.91 kg/m3
mass density (313.15 K, m1 = 0.04864): 943.52 ± 0.92 kg/m3
mass density (313.15 K, m1 = 0.05951): 948.33 ± 0.92 kg/m3
mass density (313.15 K, m1 = 0.07557): 955.44 ± 0.93 kg/m3
mass density (313.15 K, m1 = 0.0965): 964.89 ± 0.95 kg/m3
mass density (313.15 K, m1 = 0.1165): 974.05 ± 0.96 kg/m3
mass density (313.15 K, m1 = 0.1341): 982.24 ± 0.98 kg/m3
mass density (313.15 K, m1 = 0.1567): 992.85 ± 1 kg/m3
mass density (313.15 K, m1 = 0.1757): 1001.99 ± 1 kg/m3
mass density (323.15 K, m1 = 0.02128): 922.32 ± 0.9 kg/m3
mass density (323.15 K, m1 = 0.02915): 925.73 ± 0.9 kg/m3
mass density (323.15 K, m1 = 0.03784): 929.52 ± 0.91 kg/m3
mass density (323.15 K, m1 = 0.04864): 934.27 ± 0.92 kg/m3
mass density (323.15 K, m1 = 0.05951): 939.08 ± 0.92 kg/m3
mass density (323.15 K, m1 = 0.07557): 946.19 ± 0.93 kg/m3
mass density (323.15 K, m1 = 0.0965): 955.64 ± 0.95 kg/m3
mass density (323.15 K, m1 = 0.1165): 964.79 ± 0.96 kg/m3
mass density (323.15 K, m1 = 0.1341): 972.98 ± 0.98 kg/m3
mass density (323.15 K, m1 = 0.1567): 983.6 ± 1 kg/m3
mass density (323.15 K, m1 = 0.1757): 992.73 ± 1 kg/m3
mass density (333.15 K, m1 = 0.02128): 913.01 ± 0.9 kg/m3
mass density (333.15 K, m1 = 0.02915): 916.44 ± 0.91 kg/m3
mass density (333.15 K, m1 = 0.03784): 920.23 ± 0.91 kg/m3
mass density (333.15 K, m1 = 0.04864): 924.97 ± 0.92 kg/m3
mass density (333.15 K, m1 = 0.05951): 929.78 ± 0.92 kg/m3
mass density (333.15 K, m1 = 0.07557): 936.89 ± 0.93 kg/m3
mass density (333.15 K, m1 = 0.0965): 946.35 ± 0.95 kg/m3
mass density (333.15 K, m1 = 0.1165): 955.49 ± 0.96 kg/m3
mass density (333.15 K, m1 = 0.1341): 963.68 ± 0.98 kg/m3
mass density (333.15 K, m1 = 0.1567): 974.31 ± 1 kg/m3
mass density (333.15 K, m1 = 0.1757): 983.44 ± 1 kg/m3
